Laboratory results published in article PMC7827406, “Structure–Activity Relationship (SAR) Study of Spautin-1 to Entail the Discovery of Novel NEK4 Inhibitors” (International Journal of Molecular Sciences, 2021).
Like-named read-outs stand apart in the source and are kept apart here.

Assays:
Test in all cases: biochemical
Set-up in all cases: Eurofins KinaseProfiler full panel at Km ATP, residual kinase activity (%) relative to DMSO
[1] = molecular target: T1, Pyk2(h) (Homo sapiens, UniProt Q14289)
T1 construct: gene PTK2B
T1 sequence (Q14289 whole entry): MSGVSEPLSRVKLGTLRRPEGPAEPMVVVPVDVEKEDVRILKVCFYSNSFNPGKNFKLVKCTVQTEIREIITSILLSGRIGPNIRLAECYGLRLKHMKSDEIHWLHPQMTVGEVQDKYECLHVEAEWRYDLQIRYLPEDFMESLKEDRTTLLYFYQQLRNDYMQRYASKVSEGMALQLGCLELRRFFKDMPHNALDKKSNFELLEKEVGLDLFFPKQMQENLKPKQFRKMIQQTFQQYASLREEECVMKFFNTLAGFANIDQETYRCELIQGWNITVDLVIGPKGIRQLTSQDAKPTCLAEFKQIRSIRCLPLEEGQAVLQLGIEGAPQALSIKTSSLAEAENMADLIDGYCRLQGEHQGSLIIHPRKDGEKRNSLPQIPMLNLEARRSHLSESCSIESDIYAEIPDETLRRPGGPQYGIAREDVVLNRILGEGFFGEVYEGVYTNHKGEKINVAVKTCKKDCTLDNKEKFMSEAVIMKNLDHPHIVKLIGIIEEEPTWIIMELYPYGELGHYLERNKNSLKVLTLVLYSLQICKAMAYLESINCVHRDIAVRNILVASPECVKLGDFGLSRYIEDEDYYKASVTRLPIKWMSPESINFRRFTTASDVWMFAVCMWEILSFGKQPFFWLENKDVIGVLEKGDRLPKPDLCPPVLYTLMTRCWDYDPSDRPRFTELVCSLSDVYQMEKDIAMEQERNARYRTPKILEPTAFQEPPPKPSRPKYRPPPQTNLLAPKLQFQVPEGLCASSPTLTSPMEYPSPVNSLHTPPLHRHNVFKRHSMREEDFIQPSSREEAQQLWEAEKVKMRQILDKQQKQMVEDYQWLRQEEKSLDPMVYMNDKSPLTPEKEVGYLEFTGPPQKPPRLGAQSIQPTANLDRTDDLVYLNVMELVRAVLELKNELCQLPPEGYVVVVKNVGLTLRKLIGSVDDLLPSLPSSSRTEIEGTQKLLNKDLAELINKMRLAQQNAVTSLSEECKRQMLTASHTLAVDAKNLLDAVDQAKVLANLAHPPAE
Procedure, shortened: (§1)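 Compounds screened at 10 µM in radiometric kinase activity assays at Km ATP, reported as remaining kinase activity (%). A KINOMEscan competition-binding screen at 10 µM measured DNA-tagged kinase retained on immobilized active-site ligand by qPCR.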

[2] = molecular target: T2, Rse(h) (Homo sapiens, UniProt Q06418)
T2 construct: gene TYRO3
T2 sequence (Q06418 1-890): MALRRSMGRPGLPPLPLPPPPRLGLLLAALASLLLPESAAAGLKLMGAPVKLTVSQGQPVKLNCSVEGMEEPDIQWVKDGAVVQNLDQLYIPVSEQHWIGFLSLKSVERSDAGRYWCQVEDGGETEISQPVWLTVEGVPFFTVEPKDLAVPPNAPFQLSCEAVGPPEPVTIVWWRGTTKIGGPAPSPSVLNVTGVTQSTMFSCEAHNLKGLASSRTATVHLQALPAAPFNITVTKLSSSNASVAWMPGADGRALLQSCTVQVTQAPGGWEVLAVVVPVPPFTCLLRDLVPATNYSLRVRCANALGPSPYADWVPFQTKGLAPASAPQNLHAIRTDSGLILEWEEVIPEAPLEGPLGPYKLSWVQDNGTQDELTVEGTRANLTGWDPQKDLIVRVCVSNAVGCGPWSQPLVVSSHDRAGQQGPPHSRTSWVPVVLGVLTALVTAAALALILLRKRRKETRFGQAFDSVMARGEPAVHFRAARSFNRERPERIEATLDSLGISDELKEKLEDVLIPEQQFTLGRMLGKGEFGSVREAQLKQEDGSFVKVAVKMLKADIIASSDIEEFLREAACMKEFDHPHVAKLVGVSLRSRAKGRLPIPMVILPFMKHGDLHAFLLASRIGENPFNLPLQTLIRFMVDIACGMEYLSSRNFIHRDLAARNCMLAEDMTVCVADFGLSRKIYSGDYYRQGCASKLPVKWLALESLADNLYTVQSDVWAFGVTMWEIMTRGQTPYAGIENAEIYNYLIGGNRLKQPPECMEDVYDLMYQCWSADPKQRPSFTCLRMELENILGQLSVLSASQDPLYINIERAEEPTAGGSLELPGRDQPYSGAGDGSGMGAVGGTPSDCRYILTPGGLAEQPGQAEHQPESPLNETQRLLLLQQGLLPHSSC
Procedure, shortened: as §1

[3] = molecular target: T3, TSSK2(h) (Homo sapiens, UniProt Q96PF2)
T3 sequence (Q96PF2 1-358): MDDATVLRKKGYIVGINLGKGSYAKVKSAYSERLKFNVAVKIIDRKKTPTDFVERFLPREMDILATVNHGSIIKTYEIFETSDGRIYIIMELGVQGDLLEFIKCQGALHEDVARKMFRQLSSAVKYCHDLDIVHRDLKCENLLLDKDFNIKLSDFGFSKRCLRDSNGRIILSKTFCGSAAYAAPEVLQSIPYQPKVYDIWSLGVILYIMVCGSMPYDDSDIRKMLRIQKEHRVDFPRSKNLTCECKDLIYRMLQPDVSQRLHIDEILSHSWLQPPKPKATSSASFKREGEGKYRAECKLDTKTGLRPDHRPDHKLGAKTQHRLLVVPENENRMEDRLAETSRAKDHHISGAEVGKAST
Procedure, shortened: as §1

[4] = molecular target: T4, ZAP-70(h) (Homo sapiens, UniProt P43403)
T4 construct: gene ZAP70
T4 sequence (P43403 1-619): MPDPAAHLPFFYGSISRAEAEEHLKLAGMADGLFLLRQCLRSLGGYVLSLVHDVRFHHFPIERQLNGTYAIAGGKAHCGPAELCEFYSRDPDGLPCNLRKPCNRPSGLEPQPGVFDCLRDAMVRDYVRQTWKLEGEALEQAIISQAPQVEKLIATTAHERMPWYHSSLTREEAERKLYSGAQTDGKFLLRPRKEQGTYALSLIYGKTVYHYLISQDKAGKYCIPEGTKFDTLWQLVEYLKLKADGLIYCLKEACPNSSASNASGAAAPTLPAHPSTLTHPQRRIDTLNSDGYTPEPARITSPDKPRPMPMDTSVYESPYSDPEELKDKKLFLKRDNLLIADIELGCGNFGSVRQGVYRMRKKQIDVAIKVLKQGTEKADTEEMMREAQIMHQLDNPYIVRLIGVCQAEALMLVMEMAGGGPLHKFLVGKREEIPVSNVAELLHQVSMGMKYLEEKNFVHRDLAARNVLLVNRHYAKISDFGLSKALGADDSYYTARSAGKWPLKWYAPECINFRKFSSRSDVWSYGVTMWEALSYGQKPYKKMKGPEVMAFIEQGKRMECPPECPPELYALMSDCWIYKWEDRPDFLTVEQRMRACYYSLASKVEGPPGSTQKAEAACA
Procedure, shortened: as §1

[5] = read-out: Residual activity (%) 5ay
[6] = read-out: Residual activity (%) Spautin-1 5aa
[7] = read-out: Residual activity (%) 5at
[8] = read-out: Residual activity (%) 5as

COc1ccc2ncnc(Nc3cccc(F)c3)c2c1 [5ay, N-(3-Fluorophenyl)-6-Methoxy-4-Quinazolinamine]
remaining activity at 10 µM [1, 5]: 72%
remaining activity at 10 µM [2, 5]: 107%
remaining activity at 10 µM [3, 5]: 103%
remaining activity at 10 µM [4, 5]: 113%

Fc1ccc(CNc2ncnc3ccc(F)cc23)cc1 [5aa, 6-Fluoro-N-(4-fluorobenzyl)-4-Quinazolinamine]
remaining activity at 10 µM [1, 6]: 86%
remaining activity at 10 µM [2, 6]: 104%
remaining activity at 10 µM [3, 6]: 101%
remaining activity at 10 µM [4, 6]: 146%

Fc1ccc2ncnc(NCCc3ccc(Cl)cc3)c2c1 [5at, N-[2-(4-Chlorophenyl)Ethyl]-6-Fluoro-4-Quinazolinamine]
remaining activity at 10 µM [1, 7]: 69%
remaining activity at 10 µM [2, 7]: 103%
remaining activity at 10 µM [3, 7]: 103%
remaining activity at 10 µM [4, 7]: 130%

Fc1ccc(CCNc2ncnc3ccc(F)cc23)cc1 [5as, 6-Fluoro-N-[2-(4-Fluorophenyl)Ethyl]-4-Quinazolinamine]
remaining activity at 10 µM [1, 8]: 74%
remaining activity at 10 µM [2, 8]: 100%
remaining activity at 10 µM [3, 8]: 97%
remaining activity at 10 µM [4, 8]: 146%
